Measured values from US20130096159A1, “INHIBITORS OF HUMAN 12-LIPOXYGENASE” (The United States of America, as represented the Secretary …, priority 2010, published 2013).

Experiments:
human platelets = assay: platelet aggregation in response to agonists, light transmission aggregometry; assay type: cell-based; settings: agonists thrombin, arachidonic acid, PAR1-AP, PAR4-AP, ADP, collagen; 10 min pretreatment; FIG. 2
Method: Human platelets were obtained from healthy volunteers from within the Thomas Jefferson University community and the Philadelphia area. These studies were approved by the Thomas Jefferson University Institutional Review Board. Informed consent was obtained from all donors before blood draw. Blood was centrifuged at 200 g for 15 min at room temperature. Platelet-rich plasma was transferred into a conical tube containing a 10% acid citrate dextrose solution (39 mM citric acid, 75 mM sodium citrate, and 135 mM glucose, pH 7.4) and centrifuged at 2000 g for 15 min at room temperature. Platelets were resuspended in Tyrode's buffer (12 mM NaHCO3, 127 mM NaCl, 5 mM KCl, 0.5 mM NaH2PO4, 1 mM MgCl2, 5 mM glucose, and 10 mM HEPES), and the final platelet concentration was adjusted as indicated after counting using a Coulter counter (Beckman Coulter, Fullerton, Calif.). Reported results are the data obtained using platelets from at least three different subjects.
Washed platelets were obtained as described in Example 10. […] Platelets were pretreated with compound 1 for 10 min and aggregation in response to stimulation by the agonists thrombin, PAR1-AP, PAR4-AP, ADP and collagen at various agonist concentrations was measured via the light transmission aggregometry method using a lumi-aggregometer model 700D (Chrono-log Corp., Havertown, Pa.) with stirring at 1100 rpm at 37° C. […]

human 12-lipoxygenase = target: T1, human 12-lipoxygenase (Homo sapiens, UniProt P18054); assay: human 12-lipoxygenase inhibition (12hLO) assay, absorbance at 234 nm; assay type: biochemical
T1 sequence (P18054 1-663): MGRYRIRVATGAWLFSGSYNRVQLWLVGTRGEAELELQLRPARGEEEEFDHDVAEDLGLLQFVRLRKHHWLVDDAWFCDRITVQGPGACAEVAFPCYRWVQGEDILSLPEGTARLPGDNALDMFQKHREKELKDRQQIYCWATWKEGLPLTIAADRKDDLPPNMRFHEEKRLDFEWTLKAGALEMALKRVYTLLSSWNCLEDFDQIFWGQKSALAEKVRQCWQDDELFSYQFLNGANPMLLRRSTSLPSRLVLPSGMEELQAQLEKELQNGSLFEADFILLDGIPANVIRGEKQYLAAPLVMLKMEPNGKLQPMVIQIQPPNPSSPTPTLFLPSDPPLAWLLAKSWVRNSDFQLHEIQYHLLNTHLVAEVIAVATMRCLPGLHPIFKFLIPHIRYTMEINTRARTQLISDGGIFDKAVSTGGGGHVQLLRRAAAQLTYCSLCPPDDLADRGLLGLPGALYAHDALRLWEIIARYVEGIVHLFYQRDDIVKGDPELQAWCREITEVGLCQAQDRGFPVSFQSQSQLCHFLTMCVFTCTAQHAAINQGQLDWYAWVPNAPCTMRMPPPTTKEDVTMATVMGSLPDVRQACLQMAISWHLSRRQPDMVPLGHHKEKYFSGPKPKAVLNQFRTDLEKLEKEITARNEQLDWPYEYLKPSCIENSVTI

CCC(=O)NC(c1cccs1)c1cc([N+](=O)[O-])c2cccnc2c1O (stereo not drawn) [Compound 1, N-((8-hydroxy-5-nitroquinolin-7-yl)(thiophen-2-yl)methyl)propionamide]
dose response curves for platelet aggregation (human platelets): substantially unaffected | selectivity for inhibition of human 12-lipoxygenase as compared with human 5-lipoxygenase, 15-lipoxygenase-1 and 15-lipoxygenase-2 (human 12-lipoxygenase): exhibited selectivity | IC50 (human 12-lipoxygenase; 12hLO Inhibition, Table 1, read-out: IC50 (μM) [± SD μM]): 0.8 µM
